Source: paper PMC7288138, “Development of Novel Analogs of the Monocarboxylate Transporter Ligand FACH and Biological Validation of One Potential Radiotracer for Positron Emission Tomography (PET) Imaging” (Molecules, 2020)

Molecular target: T1, MCT1 (monocarboxylate transporter 1) (Rattus norvegicus, UniProt P53987)
T1 construct: gene Slc16a1
T1 sequence (P53987 1-494): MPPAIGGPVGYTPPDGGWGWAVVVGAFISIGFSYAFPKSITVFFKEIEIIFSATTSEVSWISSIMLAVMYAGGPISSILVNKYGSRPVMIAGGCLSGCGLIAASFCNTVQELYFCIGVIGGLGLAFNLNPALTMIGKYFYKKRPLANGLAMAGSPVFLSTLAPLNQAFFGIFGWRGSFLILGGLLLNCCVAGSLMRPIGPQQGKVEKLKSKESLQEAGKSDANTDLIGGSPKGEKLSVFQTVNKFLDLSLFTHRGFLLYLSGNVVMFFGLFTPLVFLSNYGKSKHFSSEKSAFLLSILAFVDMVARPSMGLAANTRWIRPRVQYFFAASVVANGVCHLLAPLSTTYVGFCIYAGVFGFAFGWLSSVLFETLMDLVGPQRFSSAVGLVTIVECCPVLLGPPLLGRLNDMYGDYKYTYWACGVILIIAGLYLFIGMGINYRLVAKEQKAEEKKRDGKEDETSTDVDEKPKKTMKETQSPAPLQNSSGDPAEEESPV
Test: […]lactate uptake inhibition in RBE4 rat brain endothelial cells (only MCT1 isoform expressed)
Type: cell-based

Row | Compound | IC50 [nM]
1 | CCCN(c1ccc(/C=C(\C#N)C(=O)O)c(OC)c1)c1cccc(F)n1 [compound 1, (E)-2-Cyano-3-(4-((6-fluoropyridin-2-yl)(propyl)amino)-2-methoxyphenyl)acrylic Acid] | 118
2 | COc1cc(N(c2ccccc2)c2cccc(F)n2)ccc1/C=C(\C#N)C(=O)O [compound 2, (E)-2-Cyano-3-(4-((6-fluoropyridin-2-yl)(phenyl)amino)-2-methoxyphenyl)acrylic Acid] | 274
